In data set [1] the target is T1, Mep2 (ScMep2) (Saccharomyces cerevisiae, UniProt P41948).
T1 construct: untagged full-length Mep2 in pOO2, cRNA-injected Xenopus oocytes; family adopts a trimeric fold
Format: cell-based. The conditions noted are these: 3 mM ammonium; pH 5.5; labelled compound.

Substrate in data set [2]: N
The data set is described as follows: cells, lysate or membranes. The settings on record: -100 mV (voltage-dependent), pH 5.5, NH4Cl.

A word on the Km: it is the concentration of substrate that gives half-maximal velocity.

T1 sequence (P41948 whole entry): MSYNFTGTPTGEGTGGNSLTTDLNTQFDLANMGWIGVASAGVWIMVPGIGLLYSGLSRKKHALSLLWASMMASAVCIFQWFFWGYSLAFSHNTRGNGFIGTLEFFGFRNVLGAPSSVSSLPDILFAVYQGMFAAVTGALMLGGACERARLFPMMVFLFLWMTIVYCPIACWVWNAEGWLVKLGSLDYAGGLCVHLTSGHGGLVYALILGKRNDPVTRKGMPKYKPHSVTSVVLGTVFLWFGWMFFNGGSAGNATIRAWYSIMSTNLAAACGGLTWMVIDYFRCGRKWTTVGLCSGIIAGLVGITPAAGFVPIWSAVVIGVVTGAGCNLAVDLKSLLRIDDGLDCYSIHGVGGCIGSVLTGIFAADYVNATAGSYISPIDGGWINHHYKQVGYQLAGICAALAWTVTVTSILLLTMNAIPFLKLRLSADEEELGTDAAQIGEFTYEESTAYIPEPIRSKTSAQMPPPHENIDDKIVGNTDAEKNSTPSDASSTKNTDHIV

Consider `N` [ammonium], for which the “15N-ammonium uptake into Xenopus oocytes, isotope ratio mass spectrometry” value in data set [1] was “Mep2 and its Mep2^S457D variant were functional in oocytes, enabling substrate transport”.

B1: Mep1 (ScMep1) (Saccharomyces cerevisiae S288C) (protein)
chain: MESRTTGPLTTETYDGPTVAFMILGAALVFFMVPGLGFLYSGLARRKSALALIWVVLMATLVGILQWYFWGYSLAFSKSAPNNKFIGNLDSFGFRNVYGKKFDEDAYPELAYATFQMMFSCVNLSIIAGATAERGRLLPHMVFLFILATIGYCPVTYWIWSPGGWAYQWGVLDWAGGGNIEILSAVSGFVYSWFLGKRNEKLLINFRPHNVSLVTLGTSILWFGWLLFNSASSLSPNLRSVYAFMNTCLSAITGGMTWCLLDYRSEKKWSTVGLCSGIISGLVAATPSSGCITLYGSLIQGIVAGVVCNFATKLKYYAKVDDAMDILAEHGVAGVIGLIFNALFGADWVIGMDGTTEHEGGWVTHNYKQMYKQIAYIAASIGYTAAVTAIICFVLGYIPGMRLRISEEAEEAGMDEDQIGEFAYDYVEVRRDYYLWGVDEDSQRSDVNHRVNNAHLAAERSSSGTNSSSDGNGEMIQSEKILPIHQEDPANR
Turning to B1, the Michaelis constant (Km) in data set [2] was 258 µM.
